Test results from US7674795B2, “Fluorene derivatives, composition containing said derivatives and the use thereof” (Aventis Pharma SA, priority 2005, dated 2010).
Counter-ions that a name gives are not always drawn.

Biological target: Hsp82 (Saccharomyces cerevisiae, UniProt P02829)
Test: PK/LDH enzyme coupling test of the ATPase activity of Hsp82 (NADH decrease at 340 nm)
Assay type: biochemical
Details: 1 μM Hsp82, 250 μM ATP, 37° C., pyruvate kinase/lactate dehydrogenase coupling, read-out: Hsp82 ATPase IC50
Description: The formation of ADP due to the ATPase activity of Hsp82 was utilized for developing another method of evaluating the enzymatic activity of this enzyme by application of an enzyme coupling system employing pyruvate kinase (PK) and lactate dehydrogenase (LDH). In this spectrophotometric method of the kinetic type, the PK catalyses the formation of ATP and of pyruvate starting from phosphoenol-pyruvate (PEP) and the ADP produced by HSP82. The pyruvate that formed, an LDH substrate, is then converted to lactate in the presence of NADH. In this case, the decrease in the concentration of NADH, measured by the decrease in absorbance at wavelength of 340 nm, is proportional to the concentration of ADP produced by HSP82. […] This mixture is preincubated at 37° C. for 30 min before adding 3.77 units of LDH and 3.77 units of PK. The reaction is started by adding the product to be evaluated, in variable concentrations, and of Hsp82, at a concentration of 1 μM. The enzymatic activity of Hsp82 is then measured continuously in a microplate reader at 37° C., at wavelength of 340 nm. The initial reaction rate is found by measuring the slope of the tangent at the origin of the recorded curve. The enzymatic activity is expressed as μM of ADP formed per minute. The effect of the various products tested is expressed as percentage of inhibition of ATPase activity, using the following codes: • A: […]

Hsp82, sequence (P02829 whole entry): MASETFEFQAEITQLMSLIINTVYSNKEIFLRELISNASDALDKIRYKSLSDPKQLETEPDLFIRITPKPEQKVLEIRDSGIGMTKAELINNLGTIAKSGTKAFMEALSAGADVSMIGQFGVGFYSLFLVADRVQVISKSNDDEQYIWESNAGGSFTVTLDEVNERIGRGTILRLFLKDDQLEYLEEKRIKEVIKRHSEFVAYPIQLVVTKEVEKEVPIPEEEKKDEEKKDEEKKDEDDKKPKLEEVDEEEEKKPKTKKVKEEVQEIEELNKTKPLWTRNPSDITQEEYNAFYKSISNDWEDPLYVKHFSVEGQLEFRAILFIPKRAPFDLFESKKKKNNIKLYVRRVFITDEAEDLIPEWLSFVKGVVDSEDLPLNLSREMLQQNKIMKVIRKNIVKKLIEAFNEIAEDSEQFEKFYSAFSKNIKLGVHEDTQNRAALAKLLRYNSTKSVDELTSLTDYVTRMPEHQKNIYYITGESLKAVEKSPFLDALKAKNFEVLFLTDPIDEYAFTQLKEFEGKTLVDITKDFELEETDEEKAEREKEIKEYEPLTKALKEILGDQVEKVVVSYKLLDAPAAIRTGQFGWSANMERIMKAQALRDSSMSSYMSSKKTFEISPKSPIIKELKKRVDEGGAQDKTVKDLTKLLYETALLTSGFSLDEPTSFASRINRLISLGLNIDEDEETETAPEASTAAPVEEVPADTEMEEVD

Row | IC50 [µM] | Compound
1 | 10 to 100 | O=C(NC1c2ccccc2-c2c(-c3nc4cnccc4[nH]3)cccc21)c1nccc2ccccc12 (racemic) [Example 64, [4-(3H-imidazo[4,5-c]pyridin-2-yl)-9H-fluoren-9(R,S)-yl]amide of isoquinoline-1-carboxylic acid]
2 | 1 to 10 | O=C(NC1c2ccccc2-c2c(-c3nc4ccncc4[nH]3)cccc21)c1cccc2c1C=CCO2 (racemic) [Example 38, [4-(3H-imidazo[4,5-c]pyridin-2-yl)-9H-fluoren-9(R,S)-yl]amide trifluoroacetate of 2H-1-benzopyran-5-carboxylic acid]
3 | < 1 | Nc1cnccc1C(=O)NC1c2ccccc2-c2c(-c3nc4ccncc4[nH]3)cccc21 (racemic) [Example 104, 3-amino-N-[4-(3H-imidazo[4,5-c]pyridin-2-yl)-9H-fluoren-9(R,S)-yl]-isonicotinamide]
4 | 1 to 10 | O=C(NC1c2ccccc2-c2c(-c3nc4ccncc4[nH]3)cccc21)c1cc(C2CC2)nc2ccccc12 (centres unmarked) [Example 85, [4-(3H-imidazo[4,5-c]pyridin-2-yl)-9H-fluoren-9-yl]amide of 2-cyclopropyl-quinoline-4-carboxylic acid]
5 | 1 to 10 | O=C(NC1c2ccccc2-c2c(-c3nc4ccncc4[nH]3)cccc21)c1ccncc1F (racemic) [Example 114, 3-fluoro-N-[4-(3H-imidazo[4,5-c]pyridin-2-yl)-9H-fluoren-9(R,S)-yl]-isonicotinamide]
6 | 1 to 10 | Nc1ccc2c(C(=O)NC3c4ccccc4-c4c(-c5nc6cnccc6[nH]5)cccc43)cccc2c1 (racemic) [Example 54, [4-(3H-imidazo[4,5-c]pyridin-2-yl)-9H-fluoren-9(R,S)-yl]amide of 6-amino-naphthalene-1-carboxylic acid]
7 | 1 to 10 | O=C(NC1c2ccccc2-c2c(-c3nc4ccncc4[nH]3)cccc21)c1ccc2cc[nH]c2c1 (racemic) [Example 46, [4-(3H-imidazo[4,5-c]pyridin-2-yl)-9H-fluoren-9(R,S)-yl]amide of 1H-indole-6-carboxylic acid]
8 | 1 to 10 | O=C(NC1c2ccccc2-c2c(-c3nc4ccncc4[nH]3)cccc21)c1ccnc2ncccc12 (racemic) [Example 97, hydrochloride of [4-(3H-imidazo[4,5-c]pyridin-2-yl)-9H-fluoren(R,S)-9-yl]amide of 1,8-naphthyridine-4-carboxylic acid]
9 | < 1 | CC(=O)Nc1cc(C(=O)NC2c3ccccc3-c3c(-c4nc5cnccc5[nH]4)cccc32)ccn1 (racemic) [Example 66, 2-acetylamino-N-[4-(3H-imidazo[4,5-c]pyridin-2-yl)-9H-fluoren-9(R,S)-yl]-isonicotinamide]
10 | 1 to 10 | O=C(NC1c2ccccc2-c2c(-c3nc4ccncc4[nH]3)cccc21)c1cc(-c2ccco2)nc2ccccc12 (racemic) [Example 113, [4-(3H-imidazo[4,5-c]pyridin-2-yl)-9H-fluoren-9(R,S)-yl]amide of 2-(furan-2-yl)-quinoline-4-carboxylic acid]

The remaining lines, values behind:

Row | Compound | IC50 [µM]
11 | Nc1nccc(C(=O)NC2c3ccccc3-c3c(-c4nc5ccncc5[nH]4)cccc32)n1 (centres unmarked) [Example 91, [4-(3H-imidazo[4,5-c]pyridin-2-yl)-9H-fluoren-9-yl]amide of 2-amino-pyrimidine-4-carboxylic acid] | < 1
12 | CC(C)(C)OC(=O)Nc1cc(C(=O)NC2c3ccccc3-c3c(-c4nc5ccncc5[nH]4)cccc32)ccn1 (racemic) [Example 125, N-[4-(3H-imidazo[4,5-c]pyridin-2-yl)-9H-fluoren-9(R,S)-yl]amide of 2-tert-butoxycarbonylaminoisonicotinic acid] | < 1
13 | C[C@@H](C(=O)N[C@@H]1c2ccccc2-c2c(-c3nc4ccncc4[nH]3)cccc21)c1cccnc1 (racemic) [Example 100, N-[4-(3H-imidazo[4,5-c]pyridin-2-yl)-9H-fluoren-9(R,S)-yl]-2(R,S)-(pyridin-3-yl)-propionamide] | 10 to 100
14 | O=C(NC1c2ccccc2-c2c(-c3nc4ccncc4[nH]3)cccc21)N1CCOCC1 (racemic) [Example 51, [4-(3H-imidazo[4,5-c]pyridin-2-yl)-9H-fluoren-9(R,S)-yl]amide trifluoroacetate of morpholine-4-carboxylic acid] | 1 to 10
15 | FC1c2ccccc2-c2c(-c3nc4cnccc4[nH]3)cccc21 (racemic) [Example 10, 2-[9(R,S)-fluoro-9H-fluoren-4-yl]-1H-imidazo[4,5-c]pyridine] | 1 to 10
16 | N#Cc1cc(C(=O)NC2c3ccccc3-c3c(-c4nc5ccncc5[nH]4)cccc32)ccn1 (racemic) [Example 105, 2-cyano-N-[4-(3H-imidazo[4,5-c]pyridin-2-yl)-9H-fluoren-9(R,S)-yl]-isonicotinamide] | 1 to 10
17 | O=C(NC1c2ccccc2-c2c(-c3nc4ccncc4[nH]3)cccc21)c1ccnc(F)c1 (racemic) [Example 95, 2-fluoro-N-[4-(3H-imidazo[4,5-c]pyridin-2-yl)-9H-fluoren-9(R,S)-yl]-isonicotinamide] | 1 to 10
18 | O=C(NC1c2ccccc2-c2c(-c3nc4ccncc4[nH]3)cccc21)c1ccncc1 (racemic) [Example 47, N-[4-(3H-imidazo[4,5-c]pyridin-2-yl)-9H-fluoren-9(R,S)-yl]-isonicotinamide] | < 1
19 | NC(=O)NCC(=O)NC1c2ccccc2-c2c(-c3nc4cnccc4[nH]3)cccc21 (racemic) [Example 58, N-[4-(3H-imidazo[4,5-c]pyridin-2-yl)-9H-fluoren-9(R,S)-yl]-2-ureido-acetamide] | 1 to 10
20 | O=C(OC1c2ccccc2-c2c(-c3nc4ccncc4[nH]3)cccc21)c1ccncc1 (racemic) [Example 122, 4-(3H-imidazo[4,5-c]pyridin-2-yl)-9H-fluoren-9(R,S)-yl ester of isonicotinic acid] | < 1
21 | O=C(NC1c2ccccc2-c2c(-c3nc4ccncc4[nH]3)cccc21)c1cc(Cl)cc2[nH]cnc12 (racemic) [Example 44, [4-(3H-imidazo[4,5-c]pyridin-2-yl)-9H-fluoren-9(R,S)-yl]amide of 6-chloro-1H-benzimidazole-4-carboxylic acid] | 1 to 10
22 | O=C1c2ccccc2-c2c1cccc2-c1nc2ccc(F)cc2[nH]1 [Example 69, 4-(6-fluoro-1H-benzimidazol-2-yl)-fluoren-9-one] | 10 to 100
23 | O=C(NC1c2ccccc2-c2c(-c3nc4cccnc4[nH]3)cccc21)c1ccncc1 (racemic) [Example 110, N-[4-(3H-imidazo[4,5-b]pyridin-2-yl)-9H-fluoren-9(R,S)-yl]-isonicotinamide] | 10 to 100
24 | O=C(NC1c2ccccc2-c2c(-c3nc4ccncc4[nH]3)cccc21)c1cc(N2CCCCC2)nc2ccccc12 (racemic) [Example 119, [4-(3H-imidazo[4,5-c]pyridin-2-yl)-9H-fluoren-9(R,S)-yl]amide of 2-piperidin-1-yl-quinoline-4-carboxylic acid] | 1 to 10
25 | CC(=O)NC1c2ccccc2-c2c(-c3nc4ccncc4[nH]3)cccc21 (racemic) [Example 72, N-[4-(3H-imidazo[4,5-c]pyridin-2-yl)-9H-fluoren-9(R,S)-yl]-acetamide] | 1 to 10
26 | O=C(NC1c2ccccc2-c2c(-c3nc4ccncc4[nH]3)cccc21)C(=O)c1ccoc1 (racemic) [Example 36, 2-furan-3-yl-N-[4-(3H-imidazo[4,5-c]pyridin-2-yl)-9H-fluoren-9(R,S)-yl]-2-oxo-acetamide] | 1 to 10
27 | CCc1cc(C(=O)NC2c3ccccc3-c3c(-c4nc5ccncc5[nH]4)cccc32)ccn1 (racemic) [Example 82, 2-ethyl-N-[4-(3H-imidazo[4,5-c]pyridin-2-yl)-9H-fluoren-9(R,S)-yl]-isonicotinamide] | < 1
28 | ON=C1c2ccccc2-c2c1cccc2-c1nc2ccc(F)cc2[nH]1 (racemic) [Example 70, 4-(6-fluoro-1H-benzimidazol-2-yl)-fluoren-9-one oxime (Z,E)] | 1 to 10
29 | O=C(NC1c2ccccc2-c2c(-c3nc4ccncc4[nH]3)cccc21)c1ccnc(C(=O)O)c1 (racemic) [Example 109, 4-[4-(3H-imidazo[4,5-c]pyridin-2-yl)-9H-fluoren-9(R,S)-ylcarbamoyl]-pyridine-2-carboxylic acid] | 10 to 100
30 | CC(C)(C)OC(=O)N[C@H](CC(=O)NC1c2ccccc2-c2c(-c3nc4cnccc4[nH]3)cccc21)C(N)=O (stereo partly drawn) [Example 59, tert-butyl ester of {(R)-1-carbamoyl-2-[4-(3H-imidazo[4,5-c]pyridin-2-yl)-9H-fluoren-9(R,S)-ylcarbamoyl]-ethyl}-carbamoic acid] | 1 to 10
31 | O=C(NC1c2ccccc2-c2c(-c3nc4ccncc4[nH]3)cccc21)C1CCOCC1 (racemic) [Example 32, [4-(3H-imidazo[4,5-c]pyridin-2-yl)-9H-fluoren-9(R,S)-yl]amide of tetrahydropyran-4-carboxylic acid] | 10 to 100
32 | O=C(NC1c2ccccc2-c2c(-c3nc4ccncc4[nH]3)cccc21)c1ccc2[nH]c(=O)[nH]c2c1 (racemic) [Example 43, [4-(3H-imidazo[4,5-c]pyridin-2-yl)-9H-fluoren-9(R,S)-yl]amide of 2-oxo-2,3-dihydro-1H-benzimidazole-5-carboxylic acid] | 10 to 100
